# Legend:
# [1] = system: Puccinia recondita; assay: In vivo screen, Puccinia recondita on wheat; parameters: species or system Wheat cv. Tonic; conditions: 400 ppm sprayed to run off, inoculated 24 hours later, wheat seedlings, incubated 4 days, percent control vs acetone-water control plants
# Experimental: Wheat cv. Tonic is used as the host plant. […] The tray is 60 cm x 30 cm.
# Percent control is then recorded.
# [2] = system: Erysiphe graminis Hordei; assay: In vivo screen, Erysiphe graminis Hordei on barley; parameters: species or system Barley cv. Golden Promise; conditions: 400 ppm sprayed to run off, inoculated 24 hours later, barley at 1 leaf stage, scored after 7 days, percent control vs acetone-water control plants
# Experimental: Barley cv. Golden Promise is used as the host plant. Seeds are sown 8 per 3 in. […] After a week symptoms are recorded. […] The percent control is then recorded.
# [3] = system: Host Plants; assay: Phytotoxicity to host plants in the in vivo screen; conditions: 400 ppm sprayed to run off, host plants of the in vivo screen
# Experimental: For each compound 3 replicate plants per pathogen at the 1 leaf stage are sprayed to run off. The plants are allowed to dry at room temperature for 24 hours prior to inoculation.
# Untreated control plants and plants sprayed with 10 percent acetone-water or water alone (as required) are included for each pathogen.
# Barley cv. Golden Promise is used as the host plant. Seeds are sown 8 per 3 in. (7.5 cm) pot and allowed to germinate and the plants are treated when they are approximately 2 weeks old. Spores are blown onto the test plants from the stock plants, which are then incubated at 20°C, relative humidity 70 percent for 7 days. After a week symptoms are recorded. The percent infection is scored from 3 replicate plants and expressed as a percent of the infection on the acetone-water control plants. The percent control is then recorded.
# Wheat cv. Tonic is used as the host plant. Seeds are sown 1 cm deep in 4 rows per plastic tray. The tray is 60 cm x 30 cm. Seedlings grown to the 1-2 leaf stage are then inoculated. Into 100 mL of distilled water is placed 0.05 g of uredospores with a melting agent. This solution is sprayed onto the seedlings leaving a fine coverage on the leaves. The plants are then incubated with 100 percent relative humidity at 15-20°C for 4 days.
SMILES,"Percent Efficacy, Puccinia recondita [1] [%]","Percent Efficacy, Erysiphe graminis [2] [%]",Percent Phytotoxicity to Host Plants [3] [%]
"CC(=O)O.C[C@H]1[C@@H](c2ccc(C(C)(C)C)cc2)CCN1C1=NCCCN1 (relative stereo) [Example 1, Cis N-(tetrahydropyrimidin-2-yl)-2-methyl-3-(4-t-butylphenyl)pyrrolidinium acetate]",0,100,0
"CC(=O)O.C[C@H]1[C@H](c2ccc(C(C)(C)C)cc2)CCN1C1=NCCCN1 (relative stereo) [Example 2, trans N-(tetrahydropyrimidin-2-yl)-2-methyl-3-(4-t-butylphenyl)pyrrolidine acetate]",0,83,0
"C[C@H]1[C@@H](c2ccc(C(C)(C)C)cc2)CCN1C1=NCCCN1.Cl (relative stereo) [Example 3, Cis N-(tetrahydropyrimidin-2-yl)-2-methyl-3--(4-t-butylphenyl)pyrrolidinium chloride]",100,14,–
"C[C@H]1[C@H](c2ccc(C(C)(C)C)cc2)CCN1C1=NCCCN1.Cl (relative stereo) [Example 4, Trans N-(tetrahydropyrimidin-2-yl)-2-methyl,3-(4-t-butylphenyl)pyrrolidinium chloride]",66,87,–
"CC1CC(C)NC(N2CC[C@H](c3ccc(C(C)(C)C)cc3)[C@@H]2C)=N1.Cl (relative stereo) [Example 5, Cis N-(4,6-dimethyltetrahydropyrimidin-2-yl)-2-methyl-3-(4-t-butylphenyl)pyrrolidinium chloride]",100,52,0
"CC1CC(C)NC(N2CC[C@@H](c3ccc(C(C)(C)C)cc3)[C@@H]2C)=N1.Cl (relative stereo) [Example 6, Trans N-(4,6-dimethyltetrahydropyrimidin-2-yl)-2-methyl-3-(4-t-butylphenyl)pyrrolidinium chloride]",0,100,0
"CCCCCCCC[C@H]1CCN(C2=NCCCN2)[C@H]1C.Cl (relative stereo) [Example 7, Cis N-(tetrahydropyrimidin-2-yl)-2-methyl-3-octyl pyrrolidinium chloride]",0,79,–

# Reference: EP0375414B1, “Substituted guanidine and amidine compounds, their production and fungicidal use” (DowElanco, priority 1988, dated 1990)
